The subject of assay [1] is T-Rex 293 cell line SC3 cells having increased expression of androgen receptor protein due to exposure to doxycycline. The assay is described as follows: Cellular growth inhibition, T-Rex 293 SC3 cells with doxycycline (androgen receptor induced), CellTiter-Glo. To be noted: T-Rex 293 SC3 cells with 10 ng/mL doxycycline (increased androgen receptor expression). Type of assay: cell-based. In a few lines: (§1)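 Growth inhibition was compared in a T-Rex 293 clone with and without doxycycline (10 ng/mL)-driven androgen receptor overexpression. Compounds were applied for 72 h in hormone-depleted serum, and GI50 came from four-parameter curves of CellTiter-Glo signal.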
(In general: ATP-based viability assays read luminescence as a measure of living cells.)

In another assay the test system is VCaP cells. The assay can be described thus: Cellular growth inhibition assay for VCaP cells, CellTiter-Glo. Type of assay: cell-based, human. Conditions: 72 hours treatment, CellTiter-Glo 2.0. A digest of the protocol:
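GI50 values come from four-parameter curve fits of luminescence data normalized to a zero baseline. Compound, in medium with 0.5% DMSO, was added one day after plating and left for 72 h before CellTiter-Glo 2.0 addition.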

In assay [2] the test system is T-Rex 293 cell line SC3 cells lacking increased expression of androgen receptor protein. The assay is described as follows: Cellular growth inhibition, T-Rex 293 SC3 cells without doxycycline, CellTiter-Glo. Type of assay: cell-based. Conditions: T-Rex 293 SC3 cells not exposed to doxycycline, CellTiter-Glo 2.0. A digest of the protocol: as §1

These results are taken from US20260062422A1 (Halda Therapeutics OpCo, Inc., priority 2022, published 2026).

With `Cc1sc2c(c1C)C(c1ccc(Cl)cc1)=N[C@@H](CC(=O)NCCOCCOCCOCCOCCOCCOCCN(C)c1ncc(C(=O)N[C@H]3C(C)(C)[C@H](Oc4ccc(C#N)c(Cl)c4)C3(C)C)cn1)c1nnc(C)n1-2` [Compound I-4], the GI50 in assay [1] (72 h) is less than 500 nM; in the assay with VCaP cells (Homo sapiens, VCaP, 72 h) it was less than 500 nM; in assay [2] (72 h), greater than 3000 nM.
With `CCNC(=O)C[C@@H]1N=C(c2ccc(N3CCC(N(C)C4CN(c5ncc(C(=O)N[C@H]6C(C)(C)[C@H](Oc7ccc(C#N)c(Cl)c7)C6(C)C)cn5)C4)CC3)cc2)c2c(sc(C)c2C)-n2c(C)nnc21` [Compound I-123], the GI50 in assay [1] (72 h) is less than 500 nM; in the assay on VCaP cells (Homo sapiens, VCaP, 72 h), less than 500 nM; in assay [2] (72 h) it was 500 to 1500 nM.
`CCNC(=O)C[C@@H]1N=C(c2ccc(OCCOCCOCCOC3CCN(c4ncc(C(=O)N[C@H]5C(C)(C)[C@H](Oc6ccc(C#N)c(Cl)c6)C5(C)C)cn4)CC3)cc2)c2c(sc(C)c2C)-n2c(C)nnc21` [Compound I-45, N-((1r,3r)-3-(3-chloro-4-cyanophenoxy)-2,2,4,4-tetramethylcyclobutyl)-2-(4-(2-(2-(2-(4-((S)-6-(2-(ethylamino)-2-oxoethyl)-2,3,9-trimethyl-6H-thieno[3,2-f][1,2,4]triazolo[4,3-a][1,4]diazepin-4-yl)phenoxy)ethoxy)ethoxy)ethoxy)piperidin-1-yl)pyrimidine-5-carboxamide]: the GI50 in assay [1] (72 h) is less than 500 nM; with VCaP cells (Homo sapiens, VCaP, 72 h), less than 500 nM; in assay [2] (72 h) it was 500 to 1500 nM.
On to `CCNC(=O)C[C@@H]1N=C(c2ccc(N(C)C3CC(OC4CCN(c5ncc(C(=O)N[C@H]6C(C)(C)[C@H](Oc7ccc(C#N)c(Cl)c7)C6(C)C)cn5)CC4)C3)cc2)c2c(sc(C)c2C)-n2c(C)nnc21` (stereo partly drawn) [Compound I-130], for which the GI50 in assay [1] (72 h) was less than 500 nM; in the assay with VCaP cells (Homo sapiens, VCaP, 72 h) it was 500 to 1500 nM; in assay [2] (72 h), 500 to 1500 nM.
In the case of `Cc1sc2c(c1C)C(c1ccc(C3CC3C3CC4(CCN(c5ncc(C(=O)N[C@H]6C(C)(C)[C@H](Oc7ccc(C#N)c(Cl)c7)C6(C)C)cn5)CC4)C3)cc1)=N[C@@H](Cc1ncco1)c1nnc(C)n1-2` (stereo partly drawn) [Compound I-237], the GI50 was less than 500 nM in assay [1] (72 h); less than 500 nM in the assay with VCaP cells (Homo sapiens, VCaP, 72 h); greater than 3000 nM in assay [2] (72 h).
With `CCNC(=O)C[C@@H]1N=C(c2ccc(N(C)CCN3CCN(c4ncc(C(=O)N[C@H]5C(C)(C)[C@H](Oc6ccc(C#N)c(Cl)c6)C5(C)C)cn4)CC3)cc2)c2c(sc(C)c2C)-n2c(C)nnc21` [Compound I-108], the GI50 was less than 500 nM in assay [1] (72 h); 500 to 1500 nM in the assay on VCaP cells (Homo sapiens, VCaP, 72 h); less than 500 nM in assay [2] (72 h).
For the compound `Cc1sc2c(c1C)C(c1ccc(C#CC3CC4(CCN(c5ncc(C(=O)N[C@H]6C(C)(C)[C@H](Oc7ccc(C#N)c(Cl)c7)C6(C)C)cn5)CC4)C3)cc1)=N[C@@H](Cc1ncco1)c1nnc(C)n1-2` [Compound I-267], the GI50 in assay [1] (72 h) is less than 500 nM; with VCaP cells (Homo sapiens, VCaP, 72 h), less than 500 nM; in assay [2] (72 h), less than 500 nM.
With `Cc1sc2c(c1C)C(c1ccc(OCCOCCOC3CCN(c4ncc(C(=O)N[C@H]5C(C)(C)[C@H](Oc6ccc(C#N)c(Cl)c6)C5(C)C)cn4)CC3)cc1)=N[C@@H](CC(=O)O)c1nnc(C)n1-2` [Compound I-39], the GI50 in assay [1] (72 h) is 500 to 1500 nM; in the assay with VCaP cells (Homo sapiens, VCaP, 72 h), greater than 3000 nM; in assay [2] (72 h), greater than 3000 nM.
Take `CCNC(=O)C[C@@H]1N=C(c2ccc(N3CCC(N(C)C4CCN(c5ncc(C(=O)N[C@H]6C(C)(C)[C@H](Oc7ccc(C#N)c(Cl)c7)C6(C)C)cn5)CC4)CC3)cc2)c2c(sc(C)c2C)-n2c(C)nnc21` [Compound I-113]: the GI50 is less than 500 nM in assay [1] (72 h); less than 500 nM with VCaP cells (Homo sapiens, VCaP, 72 h); 1500 to 3000 nM in assay [2] (72 h).
As to `Cc1sc2c(c1C)C(c1ccc(OCCOC3CCN(c4ncc(C(=O)N[C@H]5C(C)(C)[C@H](Oc6ccc(C#N)c(Cl)c6)C5(C)C)cn4)CC3)cc1)=N[C@@H](CC(=O)OC(C)(C)C)c1nnc(C)n1-2` [Compound I-235, tert-butyl 2-((S)-4-(4-(2-((1-(5-(((1r,3r)-3-(3-chloro-4-cyanophenoxy)-2,2,4,4-tetramethylcyclobutyl)carbamoyl)pyrimidin-2-yl)piperidin-4-yl)oxy)ethoxy)phenyl)-2,3,9-trimethyl-6H-thieno[3,2-f][1,2,4]triazolo[4,3-a][1,4]diazepin-6-yl)acetate], the GI50 in assay [1] (72 h) was less than 500 nM; in the assay on VCaP cells (Homo sapiens, VCaP, 72 h) it was less than 500 nM; in assay [2] (72 h), greater than 3000 nM.
As to `Cc1sc2c(c1C)C(c1ccc(CCCOC3CCN(c4ncc(C(=O)N[C@H]5C(C)(C)[C@H](Oc6ccc(C#N)c(Cl)c6)C5(C)C)cn4)CC3)cc1)=N[C@@H](CC(=O)NC(C)C)c1nnc(C)n1-2` [Compound I-100], the GI50 is less than 500 nM in assay [1] (72 h); 500 to 1500 nM in the assay on VCaP cells (Homo sapiens, VCaP, 72 h); greater than 3000 nM in assay [2] (72 h).
As to `CCNC(=O)C[C@@H]1N=C(c2ccc(N(C3CC3)C3CN(CC4CCN(c5ncc(C(=O)N[C@H]6C(C)(C)[C@H](Oc7ccc(C#N)c(Cl)c7)C6(C)C)cn5)CC4)C3)cc2)c2c(sc(C)c2C)-n2c(C)nnc21` [Compound I-129], the GI50 in assay [1] (72 h) was less than 500 nM; in the assay with VCaP cells (Homo sapiens, VCaP, 72 h), less than 500 nM; in assay [2] (72 h), 1500 to 3000 nM.
`CCNC(=O)C[C@@H]1N=C(c2ccc(OCCOC3CCN(c4ncc(C(=O)N[C@H]5C(C)(C)[C@H](Oc6ccc(C#N)c(Cl)c6)C5(C)C)cn4)CC3)cc2F)c2c(sc(C)c2C)-n2c(C)nnc21` [Compound I-75]: the GI50 was less than 500 nM in assay [1] (72 h); less than 500 nM with VCaP cells (Homo sapiens, VCaP, 72 h); 500 to 1500 nM in assay [2] (72 h).
As for `CCNC(=O)C[C@@H]1N=C(c2ccc(N(C)C3CN(CC4CCN(c5ncc(C(=O)N[C@H]6C(C)(C)[C@H](Oc7ccc(C#N)c(Cl)c7)C6(C)C)cn5)CC4)C3)cc2)c2c(sc(C)c2C)-n2c(C)nnc21` [Compound I-119], the GI50 was less than 500 nM in assay [1] (72 h); 500 to 1500 nM in the assay with VCaP cells (Homo sapiens, VCaP, 72 h); 500 to 1500 nM in assay [2] (72 h).
Regarding `Cc1sc2c(c1C)C(c1ccc(OCCOCCOCCOC3CCN(c4ncc(C(=O)N[C@H]5C(C)(C)[C@H](Oc6ccc(C#N)c(Cl)c6)C5(C)C)cn4)CC3)cc1)=N[C@@H](CC(=O)O)c1nnc(C)n1-2` [Compound I-40], the GI50 in assay [1] (72 h) is greater than 3000 nM; in the assay with VCaP cells (Homo sapiens, VCaP, 72 h), greater than 3000 nM; in assay [2] (72 h) it was greater than 3000 nM.
Turning to `Cc1sc2c(c1C)C(c1ccc(Cl)cc1)=N[C@@H](CC(=O)NCCCCCOC1CCN(c3ncc(C(=O)N[C@H]4C(C)(C)[C@H](Oc5ccc(C#N)c(Cl)c5)C4(C)C)cn3)CC1)c1nnc(C)n1-2` [Compound I-22, N-((1r,3r)-3-(3-chloro-4-cyanophenoxy)-2,2,4,4-tetramethylcyclobutyl)-2-(4-((5-(2-((S)-4-(4-chlorophenyl)-2,3,9-trimethyl-6H-thieno[3,2-A][1,2,4]triazolo[4,3-a][1,4]diazepin-6-yl)acetamido)pentyl)oxy)piperidin-1-yl)pyrimidine-5-carboxamide], the GI50 in assay [1] (72 hours) was less than 500 nM; with VCaP cells, less than 500 nM; in assay [2] (72 hours), greater than 3000 nM.
As for `CCNC(=O)C[C@@H]1N=C(c2ccc(OCC3CN(c4ncc(C(=O)N[C@H]5C(C)(C)[C@H](Oc6ccc(C#N)c(Cl)c6)C5(C)C)cn4)C3)cc2)c2c(sc(C)c2C)-n2c(C)nnc21` [Compound I-71], the GI50 in assay [1] (72 h) was less than 500 nM; in the assay with VCaP cells (Homo sapiens, VCaP, 72 h), less than 500 nM; in assay [2] (72 h) it was 500 to 1500 nM.
`Cc1sc2c(c1C)C(c1ccc(CC3CN(CC4CCN(c5ncc(C(=O)N[C@H]6C(C)(C)[C@H](Oc7ccc(C#N)c(Cl)c7)C6(C)C)cn5)CC4)C3)cc1)=N[C@@H](Cc1ncco1)c1nnc(C)n1-2` [Compound I-153]: the GI50 is less than 500 nM in assay [1] (72 h); less than 500 nM in the assay on VCaP cells (Homo sapiens, VCaP, 72 h); 500 to 1500 nM in assay [2] (72 h).

By GI50 is commonly meant the concentration giving 50% growth inhibition.
